According to publication PMC2527810, “[^18F]FDG and [^18F]FLT uptake in human breast cancer cells in relation to the effects of chemotherapy: an in vitro study” (British Journal of Cancer, 2008):

Assays:
MDA MB231 cells [1] = experiment: Cytotoxicity by sulforhodamine (SRB) assay; format: cell-based; details: Homo sapiens, MDA-MB-231, 72 h drug incubation, read-out: IC50 (50% reduction in growth)
Protocol: The human breast cancer cell line MDA MB231 (ATCC no. HTB-26) and CEM leukaemia cells (CEM wild type and TK-deficient CEM/TK-) were cultured in RPMI 1640 supplemented with 10% foetal bovine serum and 1% penicillin/streptomycin (P/S), at 5% CO2 in a humidified atmosphere at 37°C. Cell counting was performed with a Casy cell counter (Schärfe System GmbH, Reutlingen, Germany).
Cytotoxicity to 5-FU (Sigma Chemical Co., MO, St Louis, USA), doxorubicin (doxorubicin hydrochloride, Pfizer, Cappelle a/d IJssel, The Netherlands) and paclitaxel (Sigma Chemical Co.) was determined by sulforhodamine (SRB) assay. Briefly, cells were plated in 96-well plates and after 24 h, drugs were added at various concentrations, incubated for 72 h and the SRB assay was performed as described previously ([de Bruin et al, 2003]). The IC50 is the concentration resulting in 50% reduction in growth compared with untreated control cells.

MDA MB231 cells [2] = experiment: Cell cycle analysis after exposure to IC50 drug concentrations; format: cell-based, human; details: for cell cycle effect (in words): at IC50 concentrations
Protocol: For cell cycle analysis, cells were exposed to IC50 concentrations of the various drugs for 4, 24, 48 or 72 h, fixed in 70% ethanol (1 × 10^6 cells per ml) and stored at 4°C until analysis, as described previously ([Temmink et al, 2007]) according to a slightly modified protocol.

[3] = tested on: Thymidine kinase (TK) activity in MDA MB231 breast cancer cells; experiment: TK enzyme activity (FLT phosphorylation) in lysates of drug-treated cells; format: cell-based, human; details: IC50 concentration; for TK activity compared with untreated cells (in words): 48 and 72 h, effects minor
Protocol: . Enzyme activity was also analysed in CEM cells and in the corresponding TK-1-deficient subtype to assess whether FLT phosphorylation only occurs in the presence of sufficient cytosolic TK-1.
Cell pellets were suspended in 50 mM Tris/1 mM EDTA (pH 7.4) and sonificated on ice. Lysates were spun down and supernatant diluted 1 : 8 in 50 mM Tris/1 mM EDTA (pH 7.4).
3′-deoxy-3′-[^18F]fluorothymidine was diluted with 50 mM Tris/1 mM EDTA (pH 7.4) and 1 : 1 mixed with 20 mM ATP, 10 mM MgCl2, resulting in an FLT concentration of about 60 MBq ml^−1 (6.32–18.89 pmol per sample). […] .
The assay was optimised for protein concentration and incubation times. Diluted cell lysates or purified TK-2 (kindly provided by A. Karlsson, Karolinska Institute, Stockholm, Sweden) were incubated with the FLT mixture for 15 min at 37°C and the reaction was stopped by heating the samples at 95°C for 5 min. Substrate (FLT) and product (FLT-phosphate) were separated by TLC and radioactivity was measured in a single-well gamma counter (Wallac1480 Wizard, Perkin Elmer Lifescience, MA, USA). Protein concentrations were measured in a Bio-Rad Bradford protein assay (Bio-Rad Laboratories, Hercules, CA, USA).

MDA MB231 cells [4] = experiment: Cellular FDG uptake after drug incubation; format: cell-based, human; details: IC50 concentration
Protocol: (§1) Cells were plated in six identical 24-well plates at 75 000 cells per ml. […] Control cells were plated in a concentration of 45 000 cells per ml, 4 days before tracer uptake. Cell culture medium was replaced 4 h before adding PET tracers. For FDG plates, medium was replaced with medium without glucose (+IC50 drugs concentration), as glucose competes with FDG uptake. For FLT plates, medium was replaced with medium without L-glutamine (+IC50 drugs concentration). The presence of L-glutamine in the culture medium may reduce FLT uptake, as glutamine is a source of thymidine monophosphate competing with FLT uptake through the de novo pathway.
(§2) One MBq per well FDG or FLT was added to the cells and incubated for 60 min at 37°C. After removal of excess tracer, cellular tracer uptake was determined with an ECAT Exact HR+ PET scanner (Siemens/CTI, Knoxville, TN, USA). Images were analysed using CAPP software (version 7.2, CTI/Siemens, Knoxville, TN, USA). Regions of interest (ROI) were drawn manually in a plane with visible tracer uptake. Next, ROIs were copied to all other planes and total activity per well was calculated and plotted against exact number of cells. Tracer uptake was also determined in an identical plate using the single-well gamma counter. Tracer uptake was corrected for the number of cells.

MDA MB231 cells [5] = experiment: Cellular FLT uptake after drug incubation; format: cell-based, human; details: IC50 concentration
Protocol: as §1, §2

[6] = tested on: TK-1 protein levels of MDA MB231 cells; experiment: TK-1 protein levels by Western blot; details: for increase in TK-1 levels compared with untreated cells: abstract, time not stated
[7] = 48 h incubation, IC50 concentration

Compound	IC50 (MDA MB231 cells [1]) [nM]	cell cycle effect (in words) (MDA MB231 cells [2])	TK activity compared with untreated cells (in words) [3]	Mean (±s.d.) change in FDG uptake compared with untreated cells (set to 100%) (MDA MB231 cells [4]; 4 h) [%]	Mean (±s.d.) change in FDG uptake compared with untreated cells (set to 100%) (MDA MB231 cells [4]; 24 h) [%]	Mean (±s.d.) change in FDG uptake compared with untreated cells (set to 100%) (MDA MB231 cells [4]; 48 h) [%]	Mean (±s.d.) change in FDG uptake compared with untreated cells (set to 100%) (MDA MB231 cells [4]; 72 h) [%]	Mean (±s.d.) change in FLT uptake compared with untreated cells (set to 100%) (MDA MB231 cells [5]; 4 h) [%]	Mean (±s.d.) change in FLT uptake compared with untreated cells (set to 100%) (MDA MB231 cells [5]; 24 h) [%]	Mean (±s.d.) change in FLT uptake compared with untreated cells (set to 100%) (MDA MB231 cells [5]; 48 h) [%]	Mean (±s.d.) change in FLT uptake compared with untreated cells (set to 100%) (MDA MB231 cells [5]; 72 h) [%]	Mean (±s.d.) change in TK-1 protein levels compared with untreated cells (set to 100%) ([6]; 4 h, IC50 concentration) [%]	Mean (±s.d.) change in TK-1 protein levels compared with untreated cells (set to 100%) ([6]; 24 h, IC50 concentration) [%]	Mean (±s.d.) change in TK-1 protein levels compared with untreated cells (set to 100%) ([6]; 48 h, IC50 concentration) [%]	Mean (±s.d.) change in TK-1 protein levels compared with untreated cells (set to 100%) ([6]; 72 h, IC50 concentration) [%]	increase in TK-1 levels compared with untreated cells [6]	increase in TK-1 levels ([6]; at 48 h, IC50 concentration)	increase in FLT uptake (MDA MB231 cells [5]; 72 h) [%]	other results
O=c1[nH]cc(F)c(=O)[nH]1 [5-FU, 5-fluorouracil]	5000	accumulation in the G1 phase	increased TK activity	67±2	70±13	69±21	45±20	99±45	113±7	101±8	46±32	163±1	122±38	184±53	443±58	> 300	two-fold		decrease in FDG uptake (MDA MB231 cells [4]; 72 h, listed as 5-fluorouracil): approximately 50%; decrease in FLT uptake (MDA MB231 cells [5]; 72 h): 54%; decrease in FLT uptake (MDA MB231 cells [5]; 72 h, listed as 5-fluorouracil): approximately 50%
COc1cccc2c1C(=O)c1c(O)c3c(c(O)c1C2=O)C[C@@](O)(C(=O)CO)C[C@@H]3O[C@H]1C[C@H](N)[C@H](O)[C@H](C)O1 [doxorubicin]	200	G2/M accumulation		57±35	124±59	133±45	171±0	123±83	137±52	494±232	273±209	64±6	130±78	177±71	473±348	> 300	two-fold	173	decrease in G1 phase (MDA MB231 cells [2]; [7]): 90%; decrease in S phase (MDA MB231 cells [2]; [7]): 70%; accumulation in the G2/M phase (MDA MB231 cells [2]; 48 h incubation, IC50 concentration, vs control cells): two-fold; increase in TK activity compared with untreated cells ([3]; after 24 h): more than three-fold; increase in FDG uptake (MDA MB231 cells [4]; 72 h): 71%; increase in FDG uptake (MDA MB231 cells [4]; at 24, 48 and 72 h): > 24%; increase in FLT uptake (MDA MB231 cells [5]; irrespective of incubation time): > 24%
CC(=O)O[C@H]1C(=O)[C@@]2(C)[C@H]([C@H](OC(=O)c3ccccc3)[C@]3(O)C[C@H](OC(=O)[C@H](O)[C@@H](NC(=O)c4ccccc4)c4ccccc4)C(C)=C1C3(C)C)[C@]1(OC(C)=O)CO[C@@H]1C[C@@H]2O [paclitaxel]	2.5	G2/M accumulation	increased TK activity	105±41	125±99	207±163	228±182	108±2	112±54	118±14	166±18	103±6	62±4	54±16	52±32			66	increase in G2/M phase (MDA MB231 cells [2]; 4 h drug incubation, IC50 concentration): 1.2 fold; increase in FDG uptake (MDA MB231 cells [4]; after 48 h (at 48 and 72 h)): > 100%; FLT uptake change (in words) (MDA MB231 cells [5]; abstract): hardly changed; decrease in TK-1 levels ([6]; at 48 h, IC50 concentration): > 40%
